Laboratory results as given in PubChem BioAssay AID1996.
Values after ≈ are worked out from the molar mass of the structure shown.

Conditions: buffer; pH 7.4; 200.0 µM

SMILES | solubility kinetic [µg/mL]
O=C1CCCC(=O)N1c1ccc(NCCOCCO)c([N+](=O)[O-])c1 | > 50.6
Cl.O=C(NC1CCCCC1)N1CCNCC1 | > 37.2
COCCN(CC(=O)Nc1cccc(C)c1C)C(=O)C1(c2ccccc2)CC1 | > 57.1
Cc1ccc(C(=O)N2CCN(c3ccccn3)CC2)cc1Cl | > 47.4
CC(=O)O.O=S(=O)(CCc1ccncc1)C1Cc2cccc3cccc1c23 (stereo not drawn) | 49.4
CCNC(=O)NC1c2ccccc2CSc2ccccc21.O (stereo not drawn) | 8.8
CCCNC(=O)c1cc2cc([N+](=O)[O-])ccc2s1 | 1.4 (≈ 5.3 µM)
CC(NS(=O)(=O)c1ccc(Cl)cc1)C(=O)N1CCOCC1 (stereo not drawn) | 39.7 (≈ 119 µM)
O=C(Nc1ccc(F)cc1)Nc1cccnc1Cl | 13.8 (≈ 51.9 µM)
O=C(Nc1ccc(S(=O)(=O)N2CCCCC2)cc1)c1ccc(Cl)nc1 | 7.6 (≈ 20 µM)
CCOC(=O)c1c(-c2ccc(C)cc2)csc1/N=C/N(C)C | > 47.5
Cc1ccc(NC(=O)COC(=O)C2C3CC4OC(=O)C2C4C3)cc1 (stereo not drawn) | 47.3 (≈ 144 µM)
N#CCCN(Cc1cccnc1)C(=S)NC(=O)c1ccccc1 | > 48.7
CC(=O)NC(c1cccc([N+](=O)[O-])c1)c1ccc2cccnc2c1O (stereo not drawn) | 3.5 (≈ 10.4 µM)
Clc1ccc(-c2csc(-c3cccnc3)n2)s1 | 0.7 (≈ 2.51 µM)
O=S(=O)(Nc1ccncc1Cl)c1cc(Cl)ccc1Cl | > 50.6
COC(=O)C1(C(C[N+](=O)[O-])c2ccco2)C(=O)NCC1c1ccccc1 (stereo not drawn) | 11.1 (≈ 31 µM)
CC1=C(C)CC(C(=O)Nc2nccs2)C(C(=O)O)C1 (stereo not drawn) | 40.6 (≈ 145 µM)
COc1cc(/C=C2\SC(=O)N(CCNC(=O)c3c(C)noc3C)C2=O)cc(OC)c1OC | 4.8 (≈ 10.4 µM)
COc1ccc(OCCC(=O)N2CCN(C)CC2)cc1.Cl | > 47.2
COc1ccc(N/C=C/C(=O)c2ccccc2)cc1 | < 0.5
COc1ccc(OCC(O)CNC(=O)c2sccc2Cl)cc1 (stereo not drawn) | 46 (≈ 135 µM)
CC1CCCCC1NC(=O)COC(=O)/C=C/c1ccco1 (stereo not drawn) | 22.6 (≈ 77.6 µM)
COc1ccccc1NS(=O)(=O)c1ccc2[nH]c(=S)oc2c1 | > 50.5

SMILES | solubility kinetic [µg/mL]
Cc1nc2ccc([N+](=O)[O-])cc2c(=O)n1Cc1ccc(F)cc1 | 4.7 (≈ 15 µM)
CCc1cc(SC#N)cc(C)c1N | 25.6 (≈ 133 µM)
COc1ccccc1CC(=O)Nc1cccc(C(=O)Nc2nccs2)c1 | 0.7 (≈ 1.91 µM)
N#Cc1ccc(C(=O)NC(=S)N2CCOCC2)cc1 | > 41.3
COc1ccc(NC(=O)COC(=O)CN2C(=O)C3CC=CCC3C2=O)c([N+](=O)[O-])c1 (stereo not drawn) | > 62.6
CCc1cc(=S)n2c([nH]c3ccccc32)c1C#N | 32.6 (≈ 129 µM)
Cc1nc2cc(C(=O)N3CCN(C)CC3)ccc2n1C | 40.2 (≈ 148 µM)
COc1ccccc1C(=O)NC(C)c1ccc(-n2ccnc2)cc1 (stereo not drawn) | > 48.2
CCCc1ccc(OCC(O)CN2CCCC2)cc1.Cl (stereo not drawn) | 37.2
COc1ccccc1/C=C/C(=O)OCC(=O)NC(=O)NC1CCCC1 | 13.8 (≈ 39.8 µM)
Cc1cc(C)nc(Nc2nc3ccccc3s2)n1 | < 0.1
COc1cccc(NC(=O)C2CC(=O)N(Cc3ccc(C)cc3)C2)c1 (stereo not drawn) | 9.3 (≈ 27.5 µM)
COc1cccc(C(=O)Nc2ccc3ccccc3c2)c1 | 1.6 (≈ 5.77 µM)
N/C(=N\OC(=O)c1ccc(Cl)c(Cl)c1)c1cccc(CSc2ccccn2)c1 | 0.9 (≈ 2.08 µM)
O=S(=O)(CCN1CCCCC1)Oc1ccc(Cl)cc1Cl | 50.5 (≈ 149 µM)
C=CCNC(=S)N1CCC(C(=O)c2ccc(F)cc2)CC1 | > 46
CC(=O)NCCc1ccc(C(=O)COC(=O)c2cc(C)oc2C)cc1 | > 51.5
Cc1ccc(C2=NN(CC(=O)NCc3cccs3)C(=O)CC2)cc1 | > 51.2
Oc1ccc(C=NCCc2ccccc2)cc1 | > 33.8
O=C(COc1ccccc1)Nc1ccc2oc(=O)ccc2c1 | 9.8 (≈ 33.2 µM)
COc1ccc(NC(=S)N2CCc3cc(OC)c(OC)cc3C2)cc1 | 1.5 (≈ 4.18 µM)
CCc1ccccc1N1C(=O)C(Cl)=C(N2CCOCC2)C1=O | 45.8 (≈ 143 µM)
CCC(=NCCc1ccccc1)c1c(O)n(C)c(=O)n(C)c1=O | 42.3 (≈ 134 µM)
CCCCn1c(N)c(N(CCC(C)C)C(=O)COC(=O)/C=C/c2ccc(F)cc2)c(=O)[nH]c1=O | 8.5 (≈ 17.9 µM)

SMILES | solubility kinetic [µg/mL]
O=C(CCNC(=O)c1ccco1)Nc1ccccc1OC(F)F | > 48.6
O=C(/C=C/c1cccs1)NC1CC1 | > 29
COCCCn1c(=O)c2ccccc2n2c(=S)[nH]nc12 | > 43.6
COc1cccc(C(N)=O)c1OC(=O)Cc1ccccc1F | > 45.5
CC(C)[C@H](NC(=O)c1ccccc1Cl)C(=O)OCC(=O)Nc1ccc(S(=O)(=O)N2CCOCC2)cc1 | 40.3 (≈ 74.9 µM)
N#CC1(CCCN2CCCCC2)c2ccccc2CCc2ccccc21.O=C(O)C(=O)O | > 65.2
COc1ccccc1CNC(=O)c1cc2ccccc2oc1=O | < 0.7
COC(=O)C1CCN(C(=O)COC(=O)c2ccc(N3CCCC3=O)cc2)CC1 | > 58.3
O=S(=O)(c1ccc2c(c1)CCN2)N1CCCC1 | 36.1 (≈ 143 µM)
CCCCn1c(O)c(C(C)=NCc2ccc3c(c2)OCO3)c(=O)[nH]c1=O | 0.6 (≈ 1.67 µM)
Cc1ccc2nc3c(c(Nc4ccccc4)c2c1)CCC3.Cl | 35
CCC(=O)NC1CCN(C(=S)NC)CC1 | > 34.4
CCOC(=O)CC1C(=O)NCCN1C(=O)c1ccc(C)cc1 (stereo not drawn) | > 45.7
CCCNC(=O)Nc1cccc(NC(C)=O)c1 | > 35.3
CC(C)CC1NC(=O)N(CC(=O)NC2CCCc3ccccc32)C1=O (stereo not drawn) | 45.7 (≈ 133 µM)
COc1ccc(-c2cc(C(F)(F)F)c(C#N)c(=O)[nH]2)cc1 | 21.2 (≈ 72.1 µM)
O=C(c1cc(-c2ccccc2O)on1)N1CCOCC1 | > 41.1
CC(=O)NCCc1c[nH]c2ccc(OCc3ccccc3)cc12 | 42.4 (≈ 137 µM)
CCc1cc(=O)[nH]c(SCC(=O)N2CCOCC2)n1 | > 42.5
COc1ccc(/C=C(/NC(=O)c2ccccc2)C(=O)N2CCCC2)cc1 | > 52.6
C=CCn1c(=S)[nH]c2cc(-c3ccccc3)sc2c1=O | < 0.3
N#Cc1ccc(-c2nc3ccccc3c(=O)n2O)cc1 | > 39.5
COc1ccc(C2(CNC(=O)c3ccccc3)CCCC2)cc1OC | 8.2 (≈ 24.2 µM)
C=CCn1c(C)cc(-c2csc(NC)n2)c1C | 8.5 (≈ 34.4 µM)

SMILES | solubility kinetic [µg/mL]
CC1CN(c2ccnc3cc(Cl)ccc23)CC(C)O1 (stereo not drawn) | > 41.5
O=S(=O)(NCc1ccccc1)c1cccc2nsnc12 | 44.2 (≈ 145 µM)
Fc1cccc(NC(=S)N2CCN(c3ccccn3)CC2)c1 | 5.6 (≈ 17.7 µM)
COc1cc(-c2noc(C)n2)cc(OC)c1OC | 35.7 (≈ 143 µM)
N#Cc1ccc(CSc2ncccn2)cc1 | > 34.1
Cc1ccc(Nc2cc(C)nc3ccccc23)c(C)c1 | > 39.4
COc1ccc(OC)c(C(=O)CN2C(=O)C(=O)N(C3CCCC3)C2=O)c1 | 41.3 (≈ 115 µM)
CC(=O)Nc1ccc(S(=O)(=O)Nc2nc3ccccc3nc2Nc2ccc(C(=O)O)c(O)c2)cc1 | > 74
COc1ccc2oc(C(=O)N3CCN(c4ncccn4)CC3)c(C)c2c1 | 4.8 (≈ 13.6 µM)
COc1ccccc1NC(=S)N(Cc1cccs1)C1CCCC1 | 6 (≈ 17.3 µM)
CCOC(=O)c1oc2ccccc2c1NC(=O)CCl | 10.8 (≈ 38.3 µM)
CCCCn1c(=O)c(C(=O)NC(C)c2ccccc2)c(O)c2ccccc21 (stereo not drawn) | < 0.4
O=C(/C=C/c1ccco1)NCCCN1CCOCC1 | > 39.6
COc1ccc(CNC(=O)c2cccnc2SC)cc1OC | > 47.8
CCOc1ccc(NC(=O)/C(C=Nc2ccccc2)=C(\C)O)cc1 | 1 (≈ 3.08 µM)
Nc1nc(Nc2ccc(Cl)cc2)nc(NCCO)c1[N+](=O)[O-] | 3.1 (≈ 9.55 µM)
Cc1ccc(Br)c(NS(=O)(=O)c2cccc(C(=O)N3CCNC(=O)C3)c2)c1 | > 67.8
Cc1cc(C)c(NC(=O)CCc2c(C)noc2C)c(C)c1 | > 43
Cc1cc(C)cc(NC(=O)CN2C(=O)C3CC=CCC3C2=O)c1 (stereo not drawn) | > 46.9
CCC(C)NC(=O)C1c2ccccc2C(=O)N1Cc1ccccc1 (stereo not drawn) | 38.4 (≈ 119 µM)
CC(C)N1C(=O)C2(OCCCO2)c2cc(Br)ccc21 | 46.9 (≈ 144 µM)
CC(=O)Nc1nc2c(ccc3ccccc32)s1 | 0.9 (≈ 3.71 µM)
CN(C)c1ccc(C(=O)OCC(=O)N2CCCCCC2)cc1 | 33.9 (≈ 111 µM)
CC1CCN(C(=O)COc2cccc3c2CCN(C)C3=O)CC1 | > 47.5

SMILES | solubility kinetic [µg/mL]
COc1ccc(C2=NOC(C(=O)NCc3cccnc3)C2)cc1 (stereo not drawn) | > 46.7
CC(=O)Nc1sc2c(c1C(N)=O)CCN(Cc1ccccc1)C2.Cl | > 54.9
Cc1cc(C)c(NC(=O)C2CC3CCC2C3)c(C)c1 (stereo not drawn) | 10.1 (≈ 39.2 µM)
FC(F)(F)c1ccc(CSc2ccccn2)cc1 | 1.2 (≈ 4.46 µM)
CN(CC(=O)NCCCn1ccnc1)S(=O)(=O)c1ccc(Cl)cc1 | > 55.6
Cc1ccccc1C(=O)N1CCC(C(=O)NC2CCCCC2)CC1 | 44.4 (≈ 135 µM)
O=C(NC1CCCCC1)c1cc([N+](=O)[O-])ccc1N1CCCC1 | 3.3 (≈ 10.4 µM)
CC1CCCCN1C(=O)COC(=O)c1ccc(N2CCCC2=O)cc1 (stereo not drawn) | > 51.7
Cc1c(NC(=O)c2ccccc2NC(=O)c2ccccc2)cccc1C(=O)O | 54.5 (≈ 146 µM)
CCN(CC)C(=O)C1CCCN(Cc2nc(-c3cnccn3)no2)C1 (stereo not drawn) | 40.4 (≈ 117 µM)
C/C(CC(=O)Nc1cc(C)ccn1)=N\NC(=O)c1ccccc1C | > 48.7
COc1cc([N+](=O)[O-])ccc1NC(=O)COC(=O)C=C(C)C | 3.6 (≈ 11.7 µM)
Cc1cc(NC(=O)c2ccc(Cl)cc2Cl)n(CCC#N)n1 | > 48.5
CSc1ccccc1NC(=O)c1ccccn1 | 29.8 (≈ 122 µM)
O=C(O)C1C2C=CC(C2)C1C(=O)Nc1ccc(Cl)c(Cl)c1 (stereo not drawn) | 13.4 (≈ 41.1 µM)
Cc1ccc(NC(=O)COC(=O)c2ccco2)cc1S(=O)(=O)N1CCOCC1 | > 61.3
O=C(N/N=C/c1ccco1)c1ccc2nc[nH]c2c1 | > 38.1
N/C(CCS(=O)(=O)c1ccc(Cl)cc1)=N\OC(=O)c1ccccc1C(F)(F)F | 57 (≈ 131 µM)
CC(C)NC(=O)c1cc2c(=O)n3ccccc3nc2s1 | < 0.2
Nc1ccccc1SCCS(=O)(=O)c1ccc(Cl)cc1 | 2.2 (≈ 6.71 µM)
CC(=O)Nc1c(F)cc(Br)cc1F | > 37.5
CCn1c(CCc2ccccc2)nc2ccccc21.Cl | 28.4
